Reference: US20240109900A1, “AZABICYCLIC SHP2 INHIBITORS” (IRBM S.P.A., priority 2021, published 2024)

What follows are compounds tested against SHP-2 enzyme (Met1-Leu525) (Homo sapiens (Human), UniProt Q06124) (assay: SHP2 inhibition enzymatic assay). Conditions: 0.5 nM SHP-2 activated by 500 nM IRS1 peptide, 75 μM DiFMUP substrate; read-out: SHP2wt-IC50.
Type: biochemical
Experimental: The assay was performed as described in YP Chen et al, Nature (535)2016. Assay volume of 20 μL/well was assembled in 384 well black polystyrene low-binding microplates (Greiner), using the following buffer: 60 mM HEPES pH 7.2, 75 mM NaCl, 75 mM KCl, 1 mM EDTA pH 8, 0.05% tween-20, 5 mM DTT. The SHP-2 enzyme (synthetized by Origene, Met1-Leu525, cat #TP750155) was used at a final concentration of 0.5 nM. The enzyme was activated by 500 nM IRS1 peptide (sequence: H2N-LN(pY)IDLDLV(dPEG8)LST(pY)ASINFQK-amide SEQ ID No. 1) and incubated with 75 μM DiFMUP (Sigma) as substrate.
Briefly, DMSO serially diluted testing compounds were transferred to the bottom of the assay plate. SHP2 was then added together with the IRS1 peptide. 30 min post incubation, the DiFMUP substrate was added to the reaction and incubated 30 min at room temperature. Finally 5 μL of 160 μM bpV (Potassium bisperoxo[1,10-phenanthroline]oxovanadate [V], Sigma) were added to stop and quench the reaction. The fluorescence was detected by a microplate reader (Envision, PerkinElmer) according to the DiFMUP excitation and emission wavelength. The lower the fluorescence the higher the SHP2 inhibition. […] The percentage inhibition is fitted against the compound dilutions with a four-parameter logistic regression. The inflection point (i.e. the concentration at which half-maximal inhibition is achieved) is the IC50.

SHP-2 enzyme (Met1-Leu525), sequence (Q06124 1-525): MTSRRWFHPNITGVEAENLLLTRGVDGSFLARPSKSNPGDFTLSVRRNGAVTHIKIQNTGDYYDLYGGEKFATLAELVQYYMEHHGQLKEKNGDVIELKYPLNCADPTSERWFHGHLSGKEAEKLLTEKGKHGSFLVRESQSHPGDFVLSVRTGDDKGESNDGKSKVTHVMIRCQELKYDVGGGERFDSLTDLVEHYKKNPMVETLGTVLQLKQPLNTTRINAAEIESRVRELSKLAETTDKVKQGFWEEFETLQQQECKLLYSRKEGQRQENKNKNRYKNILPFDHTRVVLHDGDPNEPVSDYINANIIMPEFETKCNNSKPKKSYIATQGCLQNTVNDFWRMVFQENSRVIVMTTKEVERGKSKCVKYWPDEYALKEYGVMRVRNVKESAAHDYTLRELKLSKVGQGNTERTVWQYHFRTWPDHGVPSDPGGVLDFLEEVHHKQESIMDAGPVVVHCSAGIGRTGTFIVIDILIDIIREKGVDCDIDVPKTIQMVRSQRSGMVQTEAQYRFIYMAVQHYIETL

| SMILES | IC50 |
| --- | --- |
| CCn1cc2c(Cl)c(-c3n[nH]c4nc(N5CC[C@@H]6[C@H](C5)[C@@]6(CN)c5ccccc5F)cnc34)ccc2n1 [Example 208, ((1S,6R,7R)-3-(3-(4-chloro-2-ethyl-2H-indazol-5-yl)-1H-pyrazolo[3,4-b]pyrazin-6-yl)-7-(2-fluorophenyl)-3-azabicyclo[4.1.0]heptan-7-yl)methanamine] | < 500 nM |
| Cc1csc([C@@]2(CN)[C@@H]3CN(c4cnc5c(-c6ccc(-n7cccn7)cc6Cl)n[nH]c5n4)C[C@@H]32)n1 [Example 283, ((1R,5S,6r)-3-(3-(2-chloro-4-(1H-pyrazol-1-yl)phenyl)-1H-pyrazolo[3,4-b]pyrazin-6-yl)-6-(4-methylthiazol-2-yl)-3-azabicyclo[3.1.0]hexan-6-yl)methanamine] | < 500 nM |
| Cc1csc([C@@]2(CN)[C@@H]3CCN(c4cnc5c(-c6ccn7nccc7c6Cl)n[nH]c5n4)C[C@@H]32)n1 [Example 439, ((1S,6R,7S)-3-(3-(4-chloropyrazolo[1,5-a]pyridin-5-yl)-1H-pyrazolo[3,4-b]pyrazin-6-yl)-7-(4-methylthiazol-2-yl)-3-azabicyclo[4.1.0]heptan-7-yl)methanamine] | < 500 nM |
| Cc1csc(C2(CN)C3CCN(c4nc5[nH]nc(-c6cccc7ncccc67)c5nc4CO)CC32)n1 (stereo not drawn) [Example 101, (6-(7-(aminomethyl)-7-(4-methylthiazol-2-yl)-3-azabicyclo[4.1.0]heptan-3-yl)-3-(quinolin-5-yl)-1H-pyrazolo[3,4-b]pyrazin-5-yl)methanol] | < 500 nM |
| NC[C@]1(c2cc(F)ccc2F)[C@@H]2CCN(c3cnc4nc(-c5ccc6c(c5)CCC(=O)N6)ccc4n3)C[C@@H]21 [Example 531, 6-(2-((1S,6R,7R)-7-(aminomethyl)-7-(2,5-difluorophenyl)-3-azabicyclo[4.1.0]heptan-3-yl)pyrido[2,3-b]pyrazin-6-yl)-3,4-dihydroquinolin-2(1H)-one] | < 500 nM |

What follows are compounds tested on ERK phosphorylation in KYSE-520 cells (assay: Phospho-ERK cellular assay). Conditions: Homo sapiens, KYSE-520, 2 h, KYSE-520 cells, 2 h at 37° C., phospho-ERK1/2 (Thr202/Tyr204) TR-FRET; read-out: PERK IC50.
Type: cell-based
Experimental: ERK phosphorylation was detected using the “Advanced phospho-ERK1/2 (Thr202/Tyr204)” TR-FRET kit (Cisbio, Cat #64AERPEG/H), following the manufacturer reagents and instructions.
Briefly, 20.000/well KYSE-520 cells (DSMZ ACC 371) were plated in 6 μL RPMI-1640 (Invitrogen) growth medium, into 384 white low-volume high base TC microplates (Greiner). After an overnight incubation, cells were treated with DMSO serial diluted compounds and incubated for 2 h at 37° C. After incubation, 2 μL/well of 4×Lysis Buffer (Cisbio 64KL1FDF), were added and incubated with cells for 30 min on gentle shaking. Finally, lysates were added with 2 μL/well of Eu cryptate (donor) and D2 (acceptor) conjugated antibodies (as provided by the Cisbio kit #64AERPEG/H) diluted 1:100 in Detection Buffer (as provided by the Cisbio kit #64AERPEG/H). Plates were then sealed and incubated at room temperature in the dark. After an overnight incubation, the TR-FRET signal was detected on a suitable reader (Envision, PerkinElmer). The lower the TR-FRET signal the higher the higher the SHP2 inhibition in cells.
The activity of each compound dilution was calculated as percentage between vehicle DMSO treated cells and no cells, 0% inhibition and 100% inhibition respectively. The percentage activity is fitted against the compound dilutions with a four-parameter logistic regression. The inflection point (i.e. the concentration at which half-maximal inhibition is achieved) is the IC50.

| SMILES | IC50 |
| --- | --- |
| CCn1cc2c(Cl)c(-c3n[nH]c4nc(N5CC[C@@H]6[C@H](C5)[C@@]6(CN)c5ccccc5F)cnc34)ccc2n1 [Example 208, ((1S,6R,7R)-3-(3-(4-chloro-2-ethyl-2H-indazol-5-yl)-1H-pyrazolo[3,4-b]pyrazin-6-yl)-7-(2-fluorophenyl)-3-azabicyclo[4.1.0]heptan-7-yl)methanamine] | < 1000 nM |
| Cc1csc([C@@]2(CN)[C@@H]3CCN(c4cnc5c(-c6ccn7nccc7c6Cl)n[nH]c5n4)C[C@@H]32)n1 [Example 439, ((1S,6R,7S)-3-(3-(4-chloropyrazolo[1,5-a]pyridin-5-yl)-1H-pyrazolo[3,4-b]pyrazin-6-yl)-7-(4-methylthiazol-2-yl)-3-azabicyclo[4.1.0]heptan-7-yl)methanamine] | < 1000 nM |
| Cc1csc(C2(CN)C3CCN(c4nc5[nH]nc(-c6cccc7ncccc67)c5nc4CO)CC32)n1 (stereo not drawn) [Example 101, (6-(7-(aminomethyl)-7-(4-methylthiazol-2-yl)-3-azabicyclo[4.1.0]heptan-3-yl)-3-(quinolin-5-yl)-1H-pyrazolo[3,4-b]pyrazin-5-yl)methanol] | < 1000 nM |
| Cc1csc([C@@]2(CN)[C@@H]3CN(c4cnc(Sc5ccnc(-n6cccn6)c5Cl)cn4)C[C@@H]32)n1 [Example 520, ((1R,5S,6r)-3-(5-((3-chloro-2-(1H-pyrazol-1-yl)pyridin-4-yl)thio)pyrazin-2-yl)-6-(4-methylthiazol-2-yl)-3-azabicyclo[3.1.0]hexan-6-yl)methanamine] | < 1000 nM |
| Cc1csc([C@@]2(CN)[C@@H]3CN(c4nc(C)n(-c5cccc(Cl)c5Cl)c(=O)c4Cl)C[C@@H]32)n1 [Example 526, 6-((1R,5S,6r)-6-(aminomethyl)-6-(4-methylthiazol-2-yl)-3-azabicyclo[3.1.0]hexan-3-yl)-5-chloro-3-(2,3-dichlorophenyl)-2-methylpyrimidin-4(3H)-one] | > 5000 nM |
| CC(C)(C)C#Cc1n[nH]c2nc(N3CC[C@@H]4[C@H](C3)[C@@]4(CN)c3ccccc3F)cnc12 [Example 366, ((1S,6R,7R)-3-(3-(3,3-dimethylbut-1-yn-1-yl)-1H-pyrazolo[3,4-b]pyrazin-6-yl)-7-(2-fluorophenyl)-3-azabicyclo[4.1.0]heptan-7-yl)methanamine] | < 1000 nM |
| NC[C@]1(c2ccccc2F)[C@@H]2CCN(c3cnc4c(-c5ccc(-c6cc(F)c(O)c(F)c6)cc5Cl)n[nH]c4n3)C[C@@H]21 [Example 313, 4′-(6-((1S,6R,7R)-7-(aminomethyl)-7-(2-fluorophenyl)-3-azabicyclo[4.1.0]heptan-3-yl)-1H-pyrazolo[3,4-b]pyrazin-3-yl)-3′-chloro-3,5-difluoro-[1,1′-biphenyl]-4-ol] | < 1000 nM |
| NC[C@]1(c2ccccc2F)[C@@H]2CCN(c3cnc4c(-c5ccc(-c6nsc(O)n6)cc5Cl)n[nH]c4n3)C[C@@H]21 [Example 379, 3-(4-(6-((1S,6R,7R)-7-(aminomethyl)-7-(2-fluorophenyl)-3-azabicyclo[4.1.0]heptan-3-yl)-1H-pyrazolo[3,4-b]pyrazin-3-yl)-3-chlorophenyl)-1,2,4-thiadiazol-5-ol] | > 5000 nM |
| NC[C@]1(c2ccccc2F)[C@@H]2CCN(c3cnc4c(-c5ccc(CC(N)=O)cc5Cl)n[nH]c4n3)C[C@@H]21 [Example 328, 2-(4-(6-((1S,6R,7R)-7-(aminomethyl)-7-(2-fluorophenyl)-3-azabicyclo[4.1.0]heptan-3-yl)-1H-pyrazolo[3,4-b]pyrazin-3-yl)-3-chlorophenyl)acetamide] | > 5000 nM |
| Cc1csc([C@@]2(CN)[C@@H]3CCN(c4cnc5c(-c6ccc(F)c7ncccc67)c[nH]c5n4)C[C@@H]32)n1 [Example 502, ((1S,6R,7S)-3-(7-(8-fluoroquinolin-5-yl)-5H-pyrrolo[2,3-b]pyrazin-3-yl)-7-(4-methylthiazol-2-yl)-3-azabicyclo[4.1.0]heptan-7-yl)methanamine] | < 1000 nM |
| N#CNC(=O)c1ccc(-c2n[nH]c3nc(N4CC[C@@H]5[C@H](C4)[C@@]5(CN)c4ccccc4F)cnc23)c(Cl)c1 [Example 310, 4-(6-((1S,6R,7R)-7-(aminomethyl)-7-(2-fluorophenyl)-3-azabicyclo[4.1.0]heptan-3-yl)-1H-pyrazolo[3,4-b]pyrazin-3-yl)-3-chloro-N-cyanobenzamide] | > 5000 nM |
| Cc1cc([C@@]2(CN)[C@@H]3CCN(c4cnc5c(-c6cccc(-c7ncco7)c6Cl)n[nH]c5n4)C[C@@H]32)no1 [Example 111, ((1S,6R,7S)-3-(3-(2-chloro-3-(oxazol-2-yl)phenyl)-1H-pyrazolo[3,4-b]pyrazin-6-yl)-7-(5-methylisoxazol-3-yl)-3-azabicyclo[4.1.0]heptan-7-yl)methanamine] | < 1000 nM |
| Cc1c(-c2n[nH]c3nc(N4CC[C@@H]5[C@H](C4)[C@@]5(CN)c4cc(F)cc(F)c4)cnc23)ccc2nn(C)cc12 [Example 308, ((1S,6R,7R)-7-(3,5-difluorophenyl)-3-(3-(2,4-dimethyl-2H-indazol-5-yl)-1H-pyrazolo[3,4-b]pyrazin-6-yl)-3-azabicyclo[4.1.0]heptan-7-yl)methanamine] | < 1000 nM |
| Cc1cc(C(N)=O)ncc1-c1n[nH]c2nc(N3CC[C@@H]4[C@H](C3)[C@@]4(CN)c3ccccc3F)cnc12 [Example 307, 5-(6-((1S,6R,7R)-7-(aminomethyl)-7-(2-fluorophenyl)-3-azabicyclo[4.1.0]heptan-3-yl)-1H-pyrazolo[3,4-b]pyrazin-3-yl)-4-methylpicolinamide] | < 1000 nM |
| NC[C@]1(c2ccsn2)[C@@H]2CN(c3cnc4c(-c5ccc6nn(C(F)F)cc6c5Cl)n[nH]c4n3)C[C@@H]21 [Example 468, ((1R,5S,6r)-3-(3-(4-chloro-2-(difluoromethyl)-2H-indazol-5-yl)-1H-pyrazolo[3,4-b]pyrazin-6-yl)-6-(isothiazol-3-yl)-3-azabicyclo[3.1.0]hexan-6-yl)methanamine] | < 1000 nM |
| NC[C@]1(c2ccccc2F)[C@@H]2CCN(c3nc4nc(Sc5ccnc(-n6cccn6)c5Cl)cnc4[nH]3)C[C@@H]21 [Example 342, ((1S,6R,7R)-3-(5-((3-chloro-2-(1H-pyrazol-1-yl)pyridin-4-yl)thio)-1H-imidazo[4,5-b]pyrazin-2-yl)-7-(2-fluorophenyl)-3-azabicyclo[4.1.0]heptan-7-yl)methanamine] | > 5000 nM |
| Cc1csc([C@@]2(CN)[C@@H]3CN(c4cnc5c(-c6ccnc(-n7cccn7)c6Cl)n[nH]c5n4)C[C@@H]32)n1 [Example 516, ((1R,5S,6r)-3-(3-(3-chloro-2-(1H-pyrazol-1-yl)pyridin-4-yl)-1H-pyrazolo[3,4-b]pyrazin-6-yl)-6-(4-methylthiazol-2-yl)-3-azabicyclo[3.1.0]hexan-6-yl)methanamine] | < 1000 nM |
| NCC1(c2ccccc2F)C2CCN(c3cc4nc(Sc5ccnc(N)c5Cl)cnc4[nH]3)CC21 (stereo not drawn) [Example 59, 4-((6-(7-(aminomethyl)-7-(2-fluorophenyl)-3-azabicyclo[4.1.0]heptan-3-yl)-5H-pyrrolo[2,3-b]pyrazin-2-yl)thio)-3-chloropyridin-2-amine] | < 1000 nM |

Same assay, conditions: Homo sapiens; KYSE-520 cells, 2 h at 37° C., phospho-ERK1/2 (Thr202/Tyr204) TR-FRET; read-out: PERK IC50

| SMILES | IC50 |
| --- | --- |
| Cc1csc([C@@]2(CN)[C@@H]3CN(c4cnc5c(-c6ccc(-n7cccn7)cc6Cl)n[nH]c5n4)C[C@@H]32)n1 [Example 283, ((1R,5S,6r)-3-(3-(2-chloro-4-(1H-pyrazol-1-yl)phenyl)-1H-pyrazolo[3,4-b]pyrazin-6-yl)-6-(4-methylthiazol-2-yl)-3-azabicyclo[3.1.0]hexan-6-yl)methanamine] | < 1000 nM |
